Results reported in patent US10072055B2, “Anti-inflammatory pharmaceutical products” (Resother Pharma APS, priority 2011, dated 2018).
“Also recorded” adds a separate entry of the source. Ends that are not written are not given here.

Key:
[1] = system: PMN interaction to an activated HUVEC monolayer; assay: Flow chamber assay: PMN interaction with activated HUVEC monolayer (capture, rolling, adhesion); assay type: cell-based, human; conditions: for inhibition of PMN/neutrophil-endothelium interactions in flow chamber: concentration not given; for inhibition of PMN interaction with HUVECs (capture, adhesion, rolling): 10 μM peptide, 10 min at 37° C., flow 8 min at 1 dyne/cm^2; for lowest concentration with activity on PMN-HUVEC interactions: flow chamber model
Description: FIGS. 2A-2C are a series of charts reporting data from flow chamber analysis to determine the inhibitory capability of five polypeptides of the present disclosure (Pep57 (SEQ ID NO:12); Pep59 (SEQ ID NO:13), Pep60 (SEQ ID NO:15), Pep83 (SEQ ID NO:16) and Pep84 (SEQ ID NO:14)) and Ac-ANAX1(2-26)-OH to reduce PMN interaction to an activated HUVEC monolayer.
FIGS. 4A-4C are a series of bar charts reporting percent inhibition provided by three polypeptides (UGP022 (SEQ ID NO:5); UGP025 (SEQ ID NO:7) and UGP026 (SEQ ID NO:8)) of the present disclosure, at different concentrations, on three different parameters (capture—FIG. 4A; rolling—FIG. 4B; and adhesion—FIG. 4C).
FIGS. 2A-2C are a series of charts reporting data from flow chamber analysis to determine the inhibitory capability of five polypeptides (Pep57 (SEQ ID NO: 12); Pep59 (SEQ ID NO: 13), Pep60 (SEQ ID NO: 15), Pep83 (SEQ ID NO: 16) and Pep84 (SEQ ID NO: 14)) of the present disclosure and Ac-ANAX1(2-26)-OH to reduce PMN interaction to an activated HUVEC monolayer. PMNs (5×10^6) were incubated with 10 μM of the various peptides for 10 min at 37° C. The PMNs were then flowed for 8 min at 1 dyne/cm^2, prior to quantifying the degree of PMN interaction with the HUVECs, both as PMN capture (FIG. 2A), adhesion (FIG. 2B) and rolling (FIG. 2C). […] Data are mean±SEM of 3 independent experiments (with distinct PMN and HUVEC preparations); *=P<0.05 vs. CT group, data analyzed using one way ANOVA.
FIGS. 4A-4C make a direct comparison of the activities of UGP022 (SEQ ID NO:5), UGP025 (SEQ ID NO: 7) and UGP026 (SEQ ID NO: 8) in the flow chamber assay, presenting the degree of inhibition on the three parameters under analysis (capture (FIG. 4A); rolling (FIG. 4B) and adhesion (FIG. 4C)).

[2] = system: leukocyte recruitment into the inflamed airpouch; assay: Mouse IL-1β air-pouch inflammation model (leukocyte migration); assay type: in vivo; conditions: for inhibition of leukocyte infiltration/recruitment in air-pouch model: mouse air-pouch
Experimental: FIG. 3A and FIG. 3B are a series of bar charts comparing the anti-inflammatory effects of three polypeptides (Pep57 (SEQ ID NO:12); Pep59 (SEQ ID NO:13) and Pep84 (SEQ ID NO:14)) of the present disclosure versus a vehicle-only control.
FIG. 3A and FIG. 3B are a series of bar charts comparing the anti-inflammatory effects of three polypeptides (Pep57 (SEQ ID NO: 12); Pep59 (SEQ ID NO: 13) and Pep84 (SEQ ID NO: 14)) of the present disclosure versus a vehicle-only control. Mice received 200 μl i.v. of saline+DMSO or a dose of 50 μg per animal of one of the three Ac2-26 derived peptides, immediately before the local injection of mouse IL-1β into 6-day-old airpouches. The extent of cell migration was determined 4 h later, following airpouch washing and staining of migrated cells with Gr1 marker. […] Data are mean±SEM of 5 mice per group. *P<0.05 vs. vehicle group (one way ANOVA).

FPR2 [3] = target: T1, FPR2 (Homo sapiens, UniProt P25090); assay: Binding affinity to FPR2
T1 sequence (P25090 1-351): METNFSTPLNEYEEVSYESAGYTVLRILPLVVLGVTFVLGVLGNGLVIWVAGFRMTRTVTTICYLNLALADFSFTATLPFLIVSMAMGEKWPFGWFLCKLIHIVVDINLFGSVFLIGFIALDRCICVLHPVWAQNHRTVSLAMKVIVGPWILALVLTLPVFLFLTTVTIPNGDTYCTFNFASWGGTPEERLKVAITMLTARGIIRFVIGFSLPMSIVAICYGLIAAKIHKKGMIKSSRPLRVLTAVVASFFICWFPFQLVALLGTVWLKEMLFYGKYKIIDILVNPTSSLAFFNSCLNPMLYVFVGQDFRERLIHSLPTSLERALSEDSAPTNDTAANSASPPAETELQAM

FPR1 = target: T2, FPR1 (Homo sapiens, UniProt P21462); assay: FPR1 activation (ERK phosphorylation and intracellular calcium fluxes); assay type: cell-based
T2 sequence (P21462 1-350): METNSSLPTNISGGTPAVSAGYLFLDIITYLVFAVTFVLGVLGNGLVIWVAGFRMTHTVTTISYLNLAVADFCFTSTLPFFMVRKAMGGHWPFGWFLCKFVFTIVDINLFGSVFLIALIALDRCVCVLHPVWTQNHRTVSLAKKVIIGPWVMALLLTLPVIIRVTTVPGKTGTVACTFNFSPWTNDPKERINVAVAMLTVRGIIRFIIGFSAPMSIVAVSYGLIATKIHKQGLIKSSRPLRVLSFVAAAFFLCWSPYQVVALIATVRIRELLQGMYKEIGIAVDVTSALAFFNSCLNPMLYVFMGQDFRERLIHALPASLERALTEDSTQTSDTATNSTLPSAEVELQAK

FPR2 [4] = target: T1, FPR2; assay: FPR2 activation (ERK phosphorylation and intracellular calcium fluxes); assay type: cell-based
FPR2 [5] = target: T1, FPR2; assay: p-ERK activation in HEK-FPR2 cells (western blot, densitometry p-ERK vs t-ERK); assay type: cell-based; set-up: expressed in transfected cells; host or cells: HEK cells (HEK-FPR2); conditions: for p-ERK activation through the FPR2 receptor: 10 μM peptide, 8 minutes, HEK-FPR2 cells
Description: FIG. 1A and FIG. 1B show western blotting analysis comparing p-ERK activation potency through the FPR2 receptor for five polypeptides of the present disclosure (Pep57 (SEQ ID NO:12); Pep59 (SEQ ID NO:13), Pep60 (SEQ ID NO:15), Pep83 (SEQ ID NO:16) and Pep84 (SEQ ID NO:14)) relative to Ac-ANAX1(2-26)-OH. FIG. 1A is a representative blot for p-ERK and t-ERK.
The experiments whose results are reported in FIG. 1A and FIG. 1B were directed to determining which of the five polypeptides tested (Pep57 (SEQ ID NO: 12); Pep59 (SEQ ID NO: 13), Pep60 (SEQ ID NO: 15), Pep83 (SEQ ID NO: 16) and Pep84 (SEQ ID NO: 14)) best activated the p-ERK through the FPR2 receptor, similar to Ac-ANAX1(2-26)-OH, the parent peptide. The HEK-FPR2 cells were co-incubated with 10 μM of the novel Ac2-26 peptides for 8 minutes following which the cell were lysed and resuspended in cell lysis solution. Then 100 ng of total protein were loaded on to 10% polyacrylamide gel. Following electrophoresis, transfer and blocking the membrane was first probed with an anti p-ERK antibody and then stripped and reprobed with and anti total ERK antibody. […] Data presented as mean and SEM of 3 distinct experiments with one way ANOVA employed for statistical analysis. (*=P<0.05 vs. CT).

[6] = 50 μg per animal i.v., IL-1β, 4 h

Row | Substance | inhibition of PMN/neutrophil-endothelium interactions in flow chamber [1] | inhibition of leukocyte infiltration/recruitment in air-pouch model [2] | binding affinity to FPR2 (FPR2 [3]) | activation of FPR1 (FPR1) | activation of FPR2 (FPR2 [4]) | inhibition of PMN interaction with HUVECs (capture, adhesion, rolling) [1] | p-ERK activation through the FPR2 receptor (FPR2 [5]) | downstream signaling via the FPR family of receptors (FPR2 [5]) | lowest concentration with activity on PMN-HUVEC interactions [1] [pM] | GR1+ve cells in air-pouch (FIG. 3B) [2, 6] | migrated cell count in air-pouch (FIG. 3A) [2, 6]
1 | ANXA1(2-50) Gly51-OH (AMVSEFLKQAWFIENEEQEYVQTVKSSKGGPGSAVSPYPTFNPSSDVAAG-OH; ends and bridges not checked) [UGP021, 50 amino acids; amino acids 2-50 of human Annexin 1, position 50 of the polypeptide is glycine] | more potent than Ac-ANXA1(2-26)-OH and full length ANXA1 | more potent than Ac-ANXA1(2-26)-OH and full length ANXA1; also recorded: possess anti-inflammatory activities in an in vivo assay of leukocyte recruitment | binding affinity to the FPR2 in the nanomolar range | could activate both FPR1 and FPR2 | could activate both FPR1 and FPR2 |  |  |  |  |  | 
2 | ANXA1(2-50)-OH (AMVSEFLKQAWFIENEEQEYVQTVKSSKGGPGSAVSPYPTFNPSSDVAA-OH; ends and bridges not checked) [UGP024, 49 amino acids; amino acids 2-50 of human Annexin 1] | more potent than Ac-ANXA1(2-26)-OH and full length ANXA1 | more potent than Ac-ANXA1(2-26)-OH and full length ANXA1; also recorded: possess anti-inflammatory activities in an in vivo assay of leukocyte recruitment |  | could activate both FPR1 and FPR2 | could activate both FPR1 and FPR2 |  |  |  |  |  | 
3 | Ac-ANAX1(2-26)-OH (Ac-AMVSEFLKQAWFIENEEQEYVQTVK-OH) [Ac2-26, parent peptide; mimics the 2nd to the 26th amino acids of the Annexin A1 N-terminal region, N-terminally acetylated, reference compound] |  |  |  |  |  | inhibitory properties | activation caused by the parent Ac2-26 |  |  |  | 
4 | Asp11,22-Ac-ANAX1(2-26)-OH (Ac-AMVSEFLKQDWFIENEEQEYDQTVK-OH) [Pep59, 25 amino acids; Annexin 1 (2-26), residues 10 and 21 aspartic acid, residue 1 acetylated] |  |  |  |  |  | did not display any inhibitory properties in this assay | p-ERK activated was observed to be highest; also recorded: very high p-ERK activation potential | lead to downstream signaling via the FPR family of receptors |  |  | 
5 | Glu11,22-Ac-ANAX1(2-26)-OH (Ac-AMVSEFLKQEWFIENEEQEYEQTVK-OH) [Pep60, 25 amino acids; Annexin 1 (2-26), residues 10 and 21 glutamic acid, residue 1 acetylated] |  |  |  |  |  | displayed potent inhibitory properties similar to those displayed by the parent Ac2-26 peptide | not that effective to phosphorylate ERK |  |  |  | 
6 | Ile11,22-Ac-ANAX1(2-26)-OH (Ac-AMVSEFLKQIWFIENEEQEYIQTVK-OH) [Pep83, 25 amino acids; Annexin 1 (2-26), residues 10 and 21 isoleucine, residue 1 acetylated] |  |  |  |  |  | only Pep57 (SEQ ID NO: 12), Pep60 (SEQ ID NO: 15) and Pep84 (SEQ ID NO: 14) display inhibitory properties |  |  |  |  | 
7 | Leu11,22-Ac-ANAX1(2-26)-OH (Ac-AMVSEFLKQLWFIENEEQEYLQTVK-OH) [Pep57, 25 amino acids; Annexin 1 (2-26), residues 10 and 21 leucine, residue 1 acetylated] | significantly inhibited PMN-HUVEC interactions | significantly inhibiting leukocyte infiltration; also recorded: displayed inhibitory potential in the model |  |  |  | displayed inhibitory properties similar to those observed in the parent Ac2-26 peptide | p-ERK activated was observed to be highest | lead to downstream signaling via the FPR family of receptors | 10 | losing this observed effect | display anti-inflammatory properties
8 | Met11,22-Ac-ANAX1(2-26)-OH (Ac-AMVSEFLKQMWFIENEEQEYMQTVK-OH) [Pep84] | significantly inhibited PMN-HUVEC interactions | inhibiting this inflammatory readout to a larger extent |  |  |  | displayed inhibitory properties similar to those observed in the parent Ac2-26 peptide | p-ERK activated was observed to be highest | lead to downstream signaling via the FPR family of receptors | 10 |  | display anti-inflammatory properties
